“And” between values parts separate entries of the source, which are not always exact repeats. Equal entries are not always repeated.
Tested on: self-administration (addictive potential)
Test: I.v. self-administration of CP612, between-session progressive ratio and demand curve
Experimental: We tested the addictive potential of CP612 by examining the extent to which rats are willing to work to obtain CP612. Rats were initially trained to self-administer either saline, morphine (500 μg/kg/i.v. infusion), or 1 of 3 different doses of CP612 (75, 150, or 300 μg/kg/i.v. infusion) for 4 days at fixed ratio 1 (FR1, where 1 nose poke delivers 1 infusion).
During the second phase, the ratio to obtain an infusion increased geometrically every other day (FR1, FR3, FR6, FR12, FR24, FR48, and FR96).
Data (number of self-infusions) were also fitted in an economic-demand curve, which provides an estimate of the motivation to obtain drugs and their addictive potential ([20]). We measured elasticity (α), which is the relative change in consumption as a function of price (i.e., ratio of nose pokes required to obtain an infusion). Behavior is considered “inelastic” when consumption is insensitive to price and “elastic” when consumption is sensitive to price. We also measured Pmax, which is the price at which intake switches from inelastic to elastic. […] (Figure 8B).
Rats not immediately anesthetized were eliminated from the study.
Following this initial acquisition phase at FR1, the ratio to obtain the drug was increased geometrically every other day: FR3 (3 nose pokes are required to obtain 1 infusion of morphine), FR6, FR12, FR24, FR48, and FR96. This allows for analysis of drug consumption as a function of “price” using demand curves for behavioral economics, which can estimate the motivation to obtain drugs and their “addictive potential” ([20]). For this, data from each rat were fitted to the equation log Q = log Q0 + k (e ^–α(Q0 ^C) – 1), where Q represents consumption (number of self-infusions), and Q0 represents the level of consumption at the lowest price. C represents price for the drug (i.e., the ratio), and k is set to a constant accounting for the estimated range of consumption in logarithmic units (k = 4 in these studies). The symbol α is the relative change in consumption across changes in price (ratio). Behavior is considered “inelastic” when consumption is insensitive to price (i.e., the curve is flat, and consumption is maintained despite increases in price), and it switches to “elastic” when consumption is sensitive to price (i.e., when the curve is steep and consumption declines with increases in price). […] We also compared groups for their average intake in the consumption-price curves by measuring α (elasticity) and Pmax.

N[C@H](CNC(=O)C1(c2ccc(Cl)cc2)CCCC1)c1ccc(C(=O)Nc2ccncc2)cc1 [CP612]
AVG Latency (FR1_D1 to D4) (CP612-High, individual rat): 0.277 and 0.6 and 2.3 and 1.8 and 0.8 and 0.9 and 1.0 | AVG Latency (FR1_Last 2 FR1 days) (CP612-High, individual rat): 0.051 and 0.179 and 0.9 and 1.8 and 0.219 and 0.171 | AVG Latency (FR1_Last 4 FR1 days) (CP612-High, individual rat): 0.076 and 0.283 and 1.5 and 1.8 and 0.8 and 0.9 and 0.53 | AVG Latency (FR3) (CP612-High, individual rat): 1.2 and 0.116 and 2.8 and 0.5 and 0.236 and 1.4 and 0.326 | AVG Latency (FR6) (CP612-High, individual rat): 0.64 and 0.4 and 0.643 and 1.9 and 0.8 and 2.5 and 0.6 | AVG Latency (FR12) (CP612-High, individual rat): 14.4 and 2.6 and 0.5 and 4.0 and 0.6 and 2.1 | AVG Latency (FR24) (CP612-High, individual rat): 1.9 and 0.9 and 0.3 and 0.6 and 2.3 and 1.3 | AVG Latency (FR48) (CP612-High, individual rat): 14.3 and 0.9 and 1.1 and 1.9 and 18.8 and 1.2 | AVG Latency (FR96) (CP612-High, individual rat): 13.6 and 1.5 and 0.9 and 12.9 and 2.4 and 0.8 | D1 Latency (FR1) (CP612-High, individual rat): 0.857 and 1.7 and 5.4 and 2.9 and 0.6 and 0.743 | D1 Latency (FR3) (CP612-High, individual rat): 2.0 and 0.108 and 0.043 and 0.6 and 0.3 and 0.19 and 0.232 | D1 Latency (FR6) (CP612-High, individual rat): 0.65 and 0.1 and 0.9 and 0.7 and 0.8 and 3.8 and 0.275 | D1 Latency (FR12) (CP612-High, individual rat): 27.0 and 1.2 and 0.527 and 5.7 and 0.283 and 3.2 and 2.2 | D1 Latency (FR24) (CP612-High, individual rat): 1.3 and 0.7 and 0.338 and 0.9 and 1.7 and 1.4 | D1 Latency (FR48) (CP612-High, individual rat): 16.8 and 0.4 and 0.255 and 0.142 and 1.1 and 36.4 and 0.743 | D1 Latency (FR96) (CP612-High, individual rat): 4.4 and 1.8 and 0.643 and 3.1 and 3.3 and 0.647 and 0.7 | D2 Latency (FR1) (CP612-High, individual rat): 0.077 and 0.4 and 2.0 and 0.6 and 2.2 and 0.9 | D2 Latency (FR3) (CP612-High, individual rat): 0.5 and 0.125 and 5.6 and 0.4 and 0.17 and 2.6 | D2 Latency (FR6) (CP612-High, individual rat): 0.6 and 0.7 and 0.4 and 3.1 and 0.8 and 1.2 and 0.9 | D2 Latency (FR12) (CP612-High, individual rat): 1.8 and 4.1 and 0.5 and 2.3 and 0.9 and 1.0 and 2.9 | D2 Latency (FR24) (CP612-High, individual rat): 2.5 and 1.2 and 0.257 and 0.283 and 0.355 and 2.9 | D2 Latency (FR48) (CP612-High, individual rat): 11.8 and 1.4 and 1.9 and 3.7 and 1.1 and 1.2 and 1.7 | D2 Latency (FR96) (CP612-High, individual rat): 22.7 and 1.2 and 1.1 and 1.6 and 0.9 and 2.4 | D3 Latency (FR1) (CP612-High, individual rat): 0.125 and 0.22 and 1.4 and 2.0 and 0.063 and 1.3 and 0.185 | D4 Latency (FR1) (CP612-High, individual rat): 0.05 and 0.138 and 0.457 and 1.7 and 0.375 and 0.547 and 0.158 | last Latency (FR1) (CP612-High, individual rat): 0.052 and 0.138 and 0.457 and 1.7 and 0.375 and 0.547 and 0.158 | last-1 Latency (FR1) (CP612-High, individual rat): 0.05 and 0.22 and 1.4 and 2.0 and 0.063 and 1.3 and 0.185 | last-2 Latency (FR1) (CP612-High, individual rat): 0.125 and 0.4 and 2.0 and 0.6 and 2.2 and 0.9 | last-3 Latency (FR1) (CP612-High, individual rat): 0.077 and 0.4 and 2.0 and 2.9 and 0.6 and 0.9 | AVG Latency (FR1_D1 to D4) (CP612-Low, individual rats): 4.9 and 0.7 and 2.4 and 1.7 and 1.1 | AVG Latency (FR1_Last 2 FR1 days) (CP612-Low, individual rats): 0.358 and 0.6 and 0.284 and 0.9 and 0.159 and 1.0 and 0.2 and 1.2 | AVG Latency (FR1_Last 4 FR1 days) (CP612-Low, individual rats): 1.9 and 0.8 and 0.222 and 0.443 and 1.2 and 0.5 and 0.6 | AVG Latency (FR3) (CP612-Low, individual rats): 0.8 and 1.6 and 4.5 and 0.452 and 0.377 and 4.0 and 0.095 and 0.182 | AVG Latency (FR6) (CP612-Low, individual rats): 1.5 and 1.4 and 2.2 and 0.323 and 0.9 and 0.163 and 0.233 | AVG Latency (FR12) (CP612-Low, individual rats): 1.6 and 0.566 and 0.8 and 0.4 and 2.4 and 1.9 and 1.0 | AVG Latency (FR24) (CP612-Low, individual rats): 3.5 and 0.6 and 1.0 and 0.8 and 0.426 and 5.1 and 1.2 and 0.7 | AVG Latency (FR48) (CP612-Low, individual rats): 0.7 and 2.3 and 2.2 and 0.372 and 0.844 and 2.6 and 0.335 and 1.6 | AVG Latency (FR96) (CP612-Low, individual rats): 1.1 and 0.176 and 4.5 and 0.551 and 1.2 and 0.0585 and 2.6 and 0.259 | D1 Latency (FR1) (CP612-Low, individual rats): 12.2 and 0.368 and 2.4 and 7.3 and 1.0 and 3.8 and 1.9 and 0.7 | D1 Latency (FR3) (CP612-Low, individual rats): 0.425 and 0.5 and 1.0 and 0.458 and 0.7 and 4.6 and 0.155 and 0.173 | D1 Latency (FR6) (CP612-Low, individual rats): 1.3 and 2.2 and 0.473 and 0.533 and 0.9 and 0.183 and 0.32 | D1 Latency (FR12) (CP612-Low, individual rats): 0.9 and 2.3 and 0.7 and 1.3 and 0.66 and 1.0 and 0.6 | D1 Latency (FR24) (CP612-Low, individual rats): 6.2 and 0.9 and 1.5 and 0.7 and 8.8 and 2.1 and 0.19 | D1 Latency (FR48) (CP612-Low, individual rats): 1.1 and 1.6 and 3.8 and 0.332 and 0.655 and 0.6 and 0.368 and 0.073 | D1 Latency (FR96) (CP612-Low, individual rats): 0.8 and 0.108 and 8.1 and 0.57 and 0.062 and 1.6 and 0.143 | D2 Latency (FR1) (CP612-Low, individual rats): 4.7 and 1.8 and 0.14 and 0.425 and 1.0 and 0.13 and 1.5 and 0.027 | D2 Latency (FR3) (CP612-Low, individual rats): 1.1 and 2.8 and 7.9 and 0.445 and 0.067 and 3.5 and 0.035 and 0.2 | D2 Latency (FR6) (CP612-Low, individual rats): 1.7 and 0.562 and 4.0 and 0.658 and 0.112 and 0.9 and 0.143 and 0.147 | D2 Latency (FR12) (CP612-Low, individual rats): 2.2 and 0.8 and 0.4 and 0.355 and 0.1 and 3.4 and 2.9 and 1.5 | D2 Latency (FR24) (CP612-Low, individual rats): 0.76 and 0.282 and 0.4 and 0.9 and 0.148 and 1.5 and 0.188 and 1.2 | D2 Latency (FR48) (CP612-Low, individual rats): 0.337 and 3.0 and 0.6 and 0.4 and 1.0 and 4.6 and 0.3 and 3.2 | D2 Latency (FR96) (CP612-Low, individual rats): 1.5 and 0.245 and 0.8 and 0.533 and 1.6 and 0.055 and 3.5 and 0.375 | D3 Latency (FR1) (CP612-Low, individual rats): 2.1 and 0.145 and 0.175 and 0.9 and 0.5 and 2.5 and 0.8 and 0.017 | D4 Latency (FR1) (CP612-Low, individual rats): 0.433 and 0.6 and 0.143 and 1.0 and 0.3 and 0.258 and 0.24 and 2.0 | last Latency (FR1) (CP612-Low, individual rats): 0.283 and 0.653 and 0.332 and 0.9 and 0.03 and 1.7 and 0.163 and 0.342 | last-1 Latency (FR1) (CP612-Low, individual rats): 0.433 and 0.6 and 0.237 and 1.0 and 0.3 and 0.258 and 0.24 and 2.0 | last-2 Latency (FR1) (CP612-Low, individual rats): 2.1 and 0.145 and 0.143 and 0.9 and 0.5 and 2.5 and 0.8 and 0.017 | last-3 Latency (FR1) (CP612-Low, individual rats): 4.7 and 1.8 and 0.175 and 0.425 and 1.0 and 0.13 and 0.8 and 0.017 | AVG Latency (FR1_D1 to D4) (CP612-Mid, individual rat): 1.3 and 0.461 and 0.5 and 1.6 | AVG Latency (FR1_Last 2 FR1 days) (CP612-Mid, individual rat): 0.475 and 0.9 and 0.261 and 0.6 and 3.4 | AVG Latency (FR1_Last 4 FR1 days) (CP612-Mid, individual rat): 0.356 and 0.538 and 0.317 and 0.363 and 1.9 | AVG Latency (FR3) (CP612-Mid, individual rat): 0.8 and 0.466 and 1.2 and 0.0825 | AVG Latency (FR6) (CP612-Mid, individual rat): 0.633 and 1.0 and 0.8 and 3.0 and 4.9

Reference: PMC12016938, “A small molecule PKCε inhibitor reduces hyperalgesia induced by paclitaxel or opioid withdrawal” (JCI Insight, 2025)
